Measured values from paper PMC6001238, “Iterative Chemical Engineering of Vancomycin Leads to Novel Vancomycin Analogs With a High in Vitro Therapeutic Index” (Frontiers in Microbiology, 2018).
Converted amounts (≈) assume the structure as drawn. Where two headings read alike, the source gives them in different places.

Key:
VE 82 (VanC1) = test: MIC, VanC1-type VRE strain VE 82; format: cell-based, Enterococcus gallinarum; conditions: VE 82, VanC1; read-out: MIC
Method: (§1) The minimum inhibitory concentration (MIC) was determined using the broth microdilution method according to the antimicrobial susceptibility testing standards of the clinical and laboratory standards institute ([Clinical and Laboratory Standards Institute [CLSI], 2012]). Ultrapure water and non-inoculated broth were used as controls. In one case, a final concentration of 10 μM vancomycin was included with the vancomycin analog or control antibiotic.

[1] = system: S. aureus VSSA (ATCC 6538); test: MIC, broth microdilution, vancomycin-sensitive S. aureus (VSSA/MSSA, ATCC 6538); format: cell-based, Staphylococcus aureus
Procedure, shortened: (§2)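 MIC values come from broth microdilution run to CLSI susceptibility-testing standards. Ultrapure water and uninoculated broth served as controls. In one series, vancomycin at a final 10 μM was co-dosed with the analogue or comparator antibiotic.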

[2] = system: human T-lymphocyte (CEM) cells; test: Cytostatic activity, CEM cell proliferation; format: cell-based; conditions: mean ± SD of three experiments; highest concentration tested 250 µM; 3 days; read-out: Toxicity (IC50) CEM
Procedure, shortened: (§3)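 Coulter counter cell counts after 37°C culture with compound; IC50 = concentration giving 50% growth inhibition vs negative control. Incubation: L1210 2 d, CEM 3 d, HeLa 4 d. Suspension density before mixing with an equal volume of dilution: 300,000–500,000 cells/mL.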

S. aureus VISA/HIP5827 = test: MIC, broth microdilution, vancomycin-intermediate S. aureus VISA HIP5827; format: cell-based, Staphylococcus aureus
Procedure, shortened: as §2

MRSA KS89 = test: MIC, broth microdilution, MRSA KS89; format: cell-based, Staphylococcus aureus
Procedure, shortened: as §2

MRSA = test: Minimum bactericidal concentration against MRSA; format: cell-based, Staphylococcus aureus
Method: Plates were incubated overnight at 37°C and colony growth was inspected.

VE 148 (VanB) = test: MIC, VanB-type VRE strain VE 148; format: cell-based, Enterococcus; conditions: VE 148, VanB; read-out: MIC
Method: as §1

E. faecalis VRE 37 = test: MIC, broth microdilution, vancomycin-resistant E. faecalis VRE 37 (VanA); format: cell-based, Enterococcus faecalis
Procedure, shortened: as §2

[3] = system: L1210, CEM and HeLa cell lines; test: Cytostatic activity, average or summary over L1210, CEM and HeLa; format: cell-based
Procedure, shortened: as §3

VE 152 (VanB) = test: MIC, VanB-type VRE strain VE 152; format: cell-based, Enterococcus; conditions: VE 152, VanB; read-out: MIC
Method: as §1

E. faecalis VSE 1 = test: MIC, broth microdilution, vancomycin-sensitive E. faecalis (VSE 1); format: cell-based, Enterococcus faecalis
Procedure, shortened: as §2

VE 157 (VanB) = test: MIC, VanB-type VRE strain VE 157; format: cell-based, Enterococcus; conditions: VE 157, VanB; read-out: MIC
Method: as §1

VE 149 (VanB) = test: MIC, VanB-type VRE strain VE 149; format: cell-based, Enterococcus; conditions: VE 149, VanB; read-out: MIC
Method: as §1

VRE39 = test: MIC in the absence and presence of 10 µM vancomycin (vanA induction); format: cell-based, Enterococcus faecalis
Method: as §1

S. aureus VRSA = test: MIC, broth microdilution, vancomycin-resistant S. aureus (VRSA); format: cell-based, Staphylococcus aureus
Procedure, shortened: as §2

[4] = system: human cervix carcinoma (HeLa) cells; test: Cytostatic activity, HeLa cell proliferation; format: cell-based; conditions: mean ± SD of three experiments; highest concentration tested 250 µM; 4 days; read-out: Toxicity (IC50) HeLa
Procedure, shortened: as §3

E. faecalis VRE 53 = test: MIC, broth microdilution, vancomycin-resistant E. faecalis VRE 53 (VanA); format: cell-based, Enterococcus faecalis
Procedure, shortened: as §2

[5] = system: 24 clinical MRSA isolates; test: MIC against a set of 24 clinical MRSA isolates (range, MIC50, TI); format: cell-based, Staphylococcus aureus
Method: as §1

VE 150 (VanB) = test: MIC, VanB-type VRE strain VE 150; format: cell-based, Enterococcus; conditions: VE 150, VanB; read-out: MIC
Method: as §1

E. faecalis VRE 6 = test: MIC, broth microdilution, vancomycin-resistant E. faecalis VRE 6 (VanA); format: cell-based, Enterococcus faecalis
Procedure, shortened: as §2

33 clinical VRE isolates = test: MIC against a set of 33 clinical VRE isolates (range, MIC50, TI); format: cell-based, Enterococcus faecalis
Method: as §1

E. faecalis VRE 29 = test: MIC, broth microdilution, vancomycin-resistant E. faecalis VRE 29 (VanA); format: cell-based, Enterococcus faecalis
Procedure, shortened: as §2

[6] = system: Murine leukemia (L1210) cells; test: Cytostatic activity, L1210 cell proliferation; format: cell-based; conditions: mean ± SD of three experiments; highest concentration tested 250 µM; 2 days; read-out: Toxicity (IC50) L1210
Procedure, shortened: as §3

## CNC(CC(C)C)C(=O)NC1C(=O)NC(CC(N)=O)C(=O)NC2C(=O)NC3C(=O)NC(C(=O)NC(C(=O)NCC(=O)Nc4ccc(-c5ccccc5)cc4)c4cc(O)cc(O)c4-c4cc3ccc4O)C(O)c3ccc(c(Cl)c3)Oc3cc2cc(c3OC2OC(CO)C(O)C(O)C2OC2CC(C)(N)C(O)C(C)O2)Oc2ccc(cc2Cl)C1O (stereo not shown) [Vanc-83]
VE 82 (VanC1)
  MIC: 0.78 µM (≈ 1.29 µg/mL)
[1]; Staphylococcus aureus VSSA, read-out: MIC
  MIC: 0.20 µM (≈ 0.332 µg/mL)
[1]; VSSA, ratio of MIC of vancomycin and MIC of analogue
  MIC-fold improvement vs. vancomycin: 4
[2]
  IC50: 37 ± 6 µM
S. aureus VISA/HIP5827; Staphylococcus aureus VISA/HIP5827, read-out: MIC
  MIC: 1.56 µM (≈ 2.59 µg/mL)
S. aureus VISA/HIP5827; VISA/HIP5827, ratio of MIC of vancomycin and MIC of analogue
  MIC-fold improvement vs. vancomycin: 4
MRSA KS89; MRSA KS8, ratio of MIC of vancomycin and MIC of analogue
  MIC-fold improvement vs. vancomycin: 4
MRSA KS89; Staphylococcus aureus MRSA KS8, read-out: MIC
  MIC: 0.20 µM (≈ 0.332 µg/mL)
MRSA
  MBC relative to MIC: MBC equaling their MIC values
VE 148 (VanB)
  MIC: 1.56 µM (≈ 2.59 µg/mL)
E. faecalis VRE 37; Enterococcus faecalis VRE 37 (vancomycin-resistant), read-out: MIC
  MIC: 1.56 µM (≈ 2.59 µg/mL)
E. faecalis VRE 37; VRE 37, ratio of MIC of vancomycin and MIC of analogue
  MIC-fold improvement vs. vancomycin: 256
[3]; average IC50 used for TI in Table S5, >250 entered as 250, read-out: IC50
  IC50: 107 µM
[3]; average of L1210, CEM and HeLa, read-out: Toxicity (IC50) Average
  IC50: 107 µM
VE 152 (VanB)
  MIC: 1.56 µM (≈ 2.59 µg/mL)
E. faecalis VSE 1; Enterococcus faecalis VSE 1 (vancomycin-sensitive), read-out: MIC
  MIC: 0.39 µM (≈ 0.646 µg/mL)
E. faecalis VSE 1; VSE 1, ratio of MIC of vancomycin and MIC of analogue
  MIC-fold improvement vs. vancomycin: 4
VE 157 (VanB)
  MIC: 1.56 µM (≈ 2.59 µg/mL)
VE 149 (VanB)
  MIC: 1.56 µM (≈ 2.59 µg/mL)
VRE39; VRE39, 0 µM vancomycin
  MIC: 1.56 µM
VRE39; VRE39, 10 μM vancomycin added
  MIC: 3.13 µM
S. aureus VRSA; Staphylococcus aureus VRSA, read-out: MIC
  MIC: 0.39 µM (≈ 0.646 µg/mL)
S. aureus VRSA; VRSA, ratio of MIC of vancomycin and MIC of analogue
  MIC-fold improvement vs. vancomycin: 256
[4]
  IC50: 105 ± 27 µM
E. faecalis VRE 53; Enterococcus faecalis VRE 53 (vancomycin-resistant), read-out: MIC
  MIC: 1.56 µM (≈ 2.59 µg/mL)
E. faecalis VRE 53; VRE 53, ratio of MIC of vancomycin and MIC of analogue
  MIC-fold improvement vs. vancomycin: 256
[5]; 24 clinical MRSA isolates
  MIC Range: 0.10 to 0.78 µM
[5]; in vitro therapeutic index, MRSA
  TI (IC50/MIC50): 535
[5]; median MIC, 24 clinical MRSA isolates, read-out: MIC50
  MIC50: 0.20 µM (≈ 0.332 µg/mL)
VE 150 (VanB)
  MIC: 1.56 µM (≈ 2.59 µg/mL)
E. faecalis VRE 6; Enterococcus faecalis VRE 6 (vancomycin-resistant), read-out: MIC
  MIC: 0.78 µM (≈ 1.29 µg/mL)
E. faecalis VRE 6; VRE 6, ratio of MIC of vancomycin and MIC of analogue
  MIC-fold improvement vs. vancomycin: 256
33 clinical VRE isolates; 33 clinical VRE isolates
  MIC Range: 0.78 to 3.13 µM
33 clinical VRE isolates; in vitro therapeutic index, VRE
  TI (IC50/MIC50): 69
E. faecalis VRE 29; Enterococcus faecalis VRE 29 (vancomycin-resistant), read-out: MIC
  MIC: 1.56 µM (≈ 2.59 µg/mL)
E. faecalis VRE 29; VRE 29, ratio of MIC of vancomycin and MIC of analogue
  MIC-fold improvement vs. vancomycin: 256
[6]
  IC50: 179 ± 41 µM
